Measured values reported in patent US8809347B2, “Bicyclic aryl and bicyclic heteroaryl substituted triazoles useful as AXL inhibitors” (Rigel Pharmaceuticals, Inc., priority 2006, dated 2014).

Molecular target: T1, Axl (Homo sapiens, UniProt P30530)
T1 construct: Cells: Hela cells; endogenous in cells; host or cells: HeLa cells
T1 sequence (P30530 26-894): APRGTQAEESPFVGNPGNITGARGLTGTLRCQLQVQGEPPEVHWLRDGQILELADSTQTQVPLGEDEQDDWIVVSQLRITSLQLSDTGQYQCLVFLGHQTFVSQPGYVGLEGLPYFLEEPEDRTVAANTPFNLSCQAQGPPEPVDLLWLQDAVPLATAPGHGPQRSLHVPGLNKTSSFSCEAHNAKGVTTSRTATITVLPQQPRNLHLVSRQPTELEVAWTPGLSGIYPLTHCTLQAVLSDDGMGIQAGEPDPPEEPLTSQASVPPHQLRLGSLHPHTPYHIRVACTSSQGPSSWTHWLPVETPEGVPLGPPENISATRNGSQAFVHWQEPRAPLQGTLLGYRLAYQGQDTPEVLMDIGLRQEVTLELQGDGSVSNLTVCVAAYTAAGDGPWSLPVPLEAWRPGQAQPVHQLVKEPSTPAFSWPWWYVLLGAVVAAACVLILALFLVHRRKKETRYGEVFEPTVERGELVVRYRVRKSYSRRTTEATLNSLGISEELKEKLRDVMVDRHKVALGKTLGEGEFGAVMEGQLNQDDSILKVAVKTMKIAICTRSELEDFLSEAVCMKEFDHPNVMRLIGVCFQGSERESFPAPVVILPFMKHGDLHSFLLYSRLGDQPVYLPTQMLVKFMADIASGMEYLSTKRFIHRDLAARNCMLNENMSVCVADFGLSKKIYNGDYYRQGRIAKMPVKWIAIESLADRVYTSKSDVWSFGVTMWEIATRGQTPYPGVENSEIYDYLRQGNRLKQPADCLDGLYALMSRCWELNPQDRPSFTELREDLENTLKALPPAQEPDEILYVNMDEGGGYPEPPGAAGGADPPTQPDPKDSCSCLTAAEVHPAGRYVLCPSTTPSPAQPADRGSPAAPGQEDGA
Assay: Phospho-Akt in-cell Western assay (inhibition of Axl activity)
Format: cell-based
Details: Hela cells; 1 hr pre-treatment; stimulation by Axl-antibody cross-linking; phospho-Akt chemiluminescence normalized to relative cell number
Description: The compounds of the invention were tested in the following assay for their ability to inhibit Axl activity.
Phospho-Akt in-Cell Western Assay
• Cell culture plate: 96 well assay plate (Corning 3610), white, clear bottom, tissue-culture treated. • Cells: Hela cells. • Starvation medium: For Axl stimulation: 0.5% FCS (fetal calf serum) in DMEM, plus Axl/Fc (extracellular domain of AXL fused to immunoglobulin Fc region) (R&D, 154-AL) 500 ng/mL. • For EGF (epidermal growth factor) stimulation: 0.5% FCS in DMEM (Dulbecco's modified Eagles medium). • Poly-L-Lysine 0.01% solution (the working solution): […], dilute In PBS (phosphate buffered saline). • Axl antibody cross-linking: • 1st: Mouse anti-Axl (R&D, MAB154). • 2nd: Biotin-SP-conjugated AffiniPure goat anti-mouse IgG (H+ L) (Jackson ImmunoResearch #115-065-003). • Fixing buffer: 4% formaldehyde in PBS. • Wash buffer: 0.1% TritonX-100 in PBS. • Quenching buffer: 3% H2O2, 0.1% Azide in wash buffer, Azide and hydrogen peroxide (H2O2) are added fresh. • Blocking buffer: 5% BSA in TBST (tris buffered saline plus 0.1% Tween 20). • Primary antibody: Rabbit anti-human Phospho-Akt antibody (Cell Signaling 9271): 1×250 diluted in blocking buffer. • Secondary antibody: HRP (horse radish peroxidase)-conjugated Goat anti-Rabbit secondary, stock solution: Jackson ImmunoResearch (Goat anti-Rabbit HRP, #111-035-144) 1:1 diluted in glycerol, store at −20° C. The working solution: 1×2000 dilution of stock in blocking buffer. • Chemiluminescent working solution (Pierce, 37030): SuperSignal ELISA (enzyme linked immunosorbant assay) Pico Chemiluminescent substrate. • Crystal Violet solution: Stock: 2.5% Crystal violet in methanol, filtered and kept at ambient temperature. The working solution: dilute the stock 1:20 with PBS immediately before use. • 10% SDS: working solution: 5% SDS (sodium dodecylsulfate), diluted in PBS Methods: Day 1:
A 96 well TC (tissue culture treated) plate was coated with 10 μg/mL poly-L-Lysine at 37° C. for 30 min, washed twice with PBS, and air-dried for 5 minutes before cells were added. Hela cells were seeded at 10,000 cells/well and the cells were starved in 100 μL starvation medium containing Axl/Fc for 24 hrs.
The cells were pre-treated with test compounds by adding 100 μL of 2× test compound to the starvation medium on the cells. The cells were incubated at 37° C. for 1 hr before stimulation.
The cells were stimulated by Axl-antibody cross-linking as follows: A 5× 1st/2nd Axl antibody mixture was made (37.5 μg/mL 1st/100 μg/mL 2nd) in starvation medium and nutated at 4° C. with thorough mixing for 1-2 hours for clustering. The resulting mix was warmed to 37° C. 50 μL of 5× Axl 1st/2nd of antibody cluster was added to the cells and the cells were incubated at 37° C. for 5 min.
After 5 minutes stimulation, the plate was flicked to remove medium and the plate was tapped onto paper towels. Formaldehyde (4.0% in PBS, 100 μL) was added to fix the cells and the cells were incubated at ambient temperature for 20 min without shaking.
The cells were washed with a plate washer buffer to remove the formaldehyde solution. The plate was flicked to removed excess wash buffer and tapped onto paper towels. Quenching buffer (100 μL) was added to each well and the cells were incubated at ambient temperature for 20 minutes without shaking.
The cells were washed with a plate washer buffer to remove the quenching buffer. Blocking buffer (100 μL) was added and the cells were incubated at ambient temperature for at least an hour with gentle shaking.
The cells were washed with a plate washer buffer and diluted primary antibody (50 μL) was added to each well (blocking buffer was added to the negative control wells instead). The plates were incubated overnight at 4° C. with gentle shaking.
The wash buffer was removed, diluted secondary antibody (100 μL) was added, and the cells were incubated at ambient temperature for 1 hour with gentle shaking. […]

| SMILES | IC50 [nM] |
| --- | --- |
| Nc1nc(Nc2ccc(OCCN3CCCC3)cc2)nn1-c1ncnc2c1CCCCCC2 [Compound 20, 1-(5,6,7,8,9,10-hexahydrocycloocta[d]pyrimidin-4-yl)-N^3-(4-(2-(pyrrolidin-1-yl)ethoxy)phenyl)-1H-1,2,4-triazole-3,5-diamine] | < 1000 |
| CN1CCN(c2ccc(Nc3nc(N)n(-c4ncnc5c4CCCCCC5)n3)cc2)CC1 [Compound 21, 1-(5,6,7,8,9,10-hexahydrocycloocta[d]pyrimidin-4-yl)-N^3-(4-(4-methylpiperazin-1-yl)phenyl)-1H-1,2,4-triazole-3,5-diamine] | < 1000 |
| Nc1nc(Nc2ccc(OCCN3CCCC3)cc2)nn1-c1ccc2c(n1)CCCCCC2 [Compound 22, 1-(5,6,7,8,9,10-hexahydrocycloocta[b]pyridin-2-yl)-N^3-(4-(2-(pyrrolidin-1-yl)ethoxy)phenyl)-1H-1,2,4-triazole-3,5-diamine] | < 1000 |
| CN1CCN(c2ccc(Nc3nc(N)n(-c4ccc5c(n4)CCCCCC5)n3)cc2)CC1 [Compound 23, 1-(5,6,7,8,9,10-hexahydrocycloocta[b]pyridin-2-yl)-N^3-(4-(4-methylpiperazin-1-yl)phenyl)-1H-1,2,4-triazole-3,5-diamine] | < 1000 |
| Nc1nc(Nc2ccc(N3CCN(C4CC5CCC4C5)CC3)cc2)nn1-c1ncnc2c1CCCCCC2 (stereo not drawn) [Compound 24, N^3-(4-(4-(bicyclo[2.2.1]heptan-2-yl)piperazin-1-yl)phenyl)-1-(5,6,7,8,9,10-hexahydrocycloocta[d]pyrimidin-4-yl)-1H-1,2,4-triazole-3,5-diamine] | < 1000 |
| Nc1nc(Nc2ccc(N3CCC(N4CCOCC4)CC3)c(F)c2)nn1-c1ncc2c(n1)CCCCCC2 [Compound 25, N^3-(3-fluoro-4-(4-morpholinopiperidin-1-yl)phenyl)-1-(5,6,7,8,9,10-hexahydrocycloocta[d]pyrimidin-2-yl)-1H-1,2,4-triazole-3,5-diamine] | 1000 to 10000 |
| Cc1csc2c(-n3nc(Nc4ccc5c(c4)CCCN(C4CCCC4)CC5)nc3N)nc(Cl)nc12 [Compound 26, 1-(2-chloro-7-methylthieno[3,2-d]pyrimidin-4-yl)-N^3-(3-cyclopentyl-1,2,3,4,5,6-hexahydrobenzo[d]azocin-8-yl)-1H-1,2,4-triazole-3,5-diamine] | < 1000 |
| COc1cc2ncnc(-n3nc(Nc4ccc5c(c4)CCCN(C4CCCC4)CC5)nc3N)c2cc1OC [Compound 27, N^3-(3-cyclopentyl-1,2,3,4,5,6-hexahydro-benzo[d]azocin-8-yl)-1-(6,7-dimethoxy-quinazolin-4-yl)-1H-[1,2,4]triazole-3,5-diamine] | < 1000 |
| Cc1csc2c(-n3nc(Nc4ccc5c(c4)OCCCCO5)nc3N)nc(Cl)nc12 [Compound 28, 1-(2-chloro-7-methylthieno[3,2-d]pyrimidin-4-yl)-N^3-(2,3,4,5-tetrahydrobenzo[b][1,4]dioxocin-8-yl)-1H-1,2,4-triazole-3,5-diamine] | < 1000 |
| Cc1csc2c(-n3nc(Nc4ccc5c(c4)CC(N4CCCC4)CCCC5)nc3N)nc(Cl)nc12 (stereo not drawn) [Compound 29, 1-(2-chloro-7-methylthieno[3,2-d]pyrimidin-4-yl)-N^3-(9-(pyrrolidin-1-yl)-5,6,7,8,9,10-hexahydrobenzo[8]annulen-2-yl)-1H-1,2,4-triazole-3,5-diamine] | < 1000 |
| Nc1nc(Nc2ccc3c(c2)CCN(C2CCCC2)CCC3)nn1-c1ccc(C(F)(F)F)cn1 [Compound 30, N^3-(3-cyclopentyl-1,2,3,4,5,6-hexahydrobenzo[d]azocin-9-yl)-1-(5-(trifluoromethyl)pyridin-2-yl)-1H-1,2,4-triazole-3,5-diamine] | < 1000 |
| Nc1nc(Nc2ccc3c(c2)CCCN(C2CCCC2)CC3)nn1-c1ncnc2ccc(F)cc12 [Compound 31, N^3-(3-cyclopentyl-1,2,3,4,5,6-hexahydrobenzo[d]azocin-8-yl)-1-(6-fluoroquinazolin-4-yl)-1H-1,2,4-triazole-3,5-diamine] | < 1000 |
| Nc1nc(Nc2ccc3c(c2)CCCN(C2CCCC2)CC3)nn1-c1nc2ccccc2s1 [Compound 32, 1-(benzo[d]thiazol-2-yl)-N^3-(3-cyclopentyl-1,2,3,4,5,6-hexahydrobenzo[d]azocin-8-yl)-1H-1,2,4-triazole-3,5-diamine] | 1000 to 10000 |
| Nc1nc(Nc2ccc3c(c2)CCN(C2CCCC2)CCC3)nn1-c1nc2ccccc2s1 [Compound 33, 1-(benzo[d]thiazol-2-yl)-N^3-(3-cyclopentyl-1,2,3,4,5,6-hexahydrobenzo[d]azocin-9-yl)-1H-1,2,4-triazole-3,5-diamine] | < 1000 |
| Cc1csc2c(-n3nc(Nc4cnc5c(c4)CCC(=O)CCC5)nc3N)nc(Cl)nc12 [Compound 34, 1-(2-chloro-7-methylthieno[3,2-d]pyrimidin-4-yl)-N^3-(7-oxo-5,6,8,9,10-pentahydrocycloocta[b]pyridin-3-yl)-1H-1,2,4-triazole-3,5-diamine] | < 1000 |
| Nc1nc(Nc2ccc(N3CCC(N4CCCC4)CC3)c(F)c2)nn1-c1ncnc2c1CCCCCC2 [Compound 35, N^3-(3-fluoro-4-(4-(pyrrolidin-1-yl)piperidin-1-yl)phenyl)-1-(5,6,7,8,9,10-hexahydrocycloocta[d]pyrimidin-4-yl)-1H-1,2,4-triazole-3,5-diamine] | < 1000 |
| Nc1nc(Nc2ccc(N3CC(N4CCCC4)C3)c(F)c2)nn1-c1ncnc2c1CCCCCC2 [Compound 36, N^3-(3-fluoro-4-(3-(pyrrolidin-1-yl)azetidin-1-yl)phenyl)-1-(5,6,7,8,9,10-hexahydrocycloocta[d]pyrimidin-4-yl)-1H-1,2,4-triazole-3,5-diamine] | < 1000 |
| Cc1csc2c(-n3nc(Nc4cnc5c(c4)CCC(N4CCCC4)CCC5)nc3N)nc(Cl)nc12 (stereo not drawn) [Compound 37, 1-(2-chloro-7-methylthieno[3,2-d]pyrimidin-4-yl)-N^3-(7-(pyrrolidin-1-yl)-5,6,7,8,9,10-hexahydrocycloocta[b]pyridin-3-yl)-1H-1,2,4-triazole-3,5-diamine] | < 1000 |
